One series has as its target T1, Pancreatic Lipase (Sus scrofa, UniProt P00591).
T1 construct: purchased Sigma L-3126
T1 sequence (P00591 1-450): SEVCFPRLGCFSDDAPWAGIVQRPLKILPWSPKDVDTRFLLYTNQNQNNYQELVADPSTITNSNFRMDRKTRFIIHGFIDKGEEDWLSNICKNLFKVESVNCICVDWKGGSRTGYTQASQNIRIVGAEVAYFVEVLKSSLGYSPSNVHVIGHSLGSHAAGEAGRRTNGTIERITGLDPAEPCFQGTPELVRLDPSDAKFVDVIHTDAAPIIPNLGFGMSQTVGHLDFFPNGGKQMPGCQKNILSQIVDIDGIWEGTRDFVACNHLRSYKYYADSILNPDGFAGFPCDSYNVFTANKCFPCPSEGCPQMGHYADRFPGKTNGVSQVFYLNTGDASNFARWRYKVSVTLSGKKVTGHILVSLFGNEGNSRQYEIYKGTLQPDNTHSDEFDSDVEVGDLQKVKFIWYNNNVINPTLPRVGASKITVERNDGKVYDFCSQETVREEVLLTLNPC
The series is described as follows: Pancreatic lipase inhibition assay (p-nitro phenol palmitate substrate, 96-well). The class given is biochemical. The settings on record: for IC50: dose range 6.25 μM-200 μM, interpolated by linear regression; for inhibition at 100 µM / inhibition at 200 µM: pancreatic lipase, 37° C., OD 405 nm; for inhibition at 100 µM: compound 100 μM; for inhibition at 200 µM: compound 200 μM. The procedure:
Preparation of test samples: Structures #2-#19 were dissolved in 1 mL DMSO to obtain a 10 mM stock solution, and were vortexed to dissolution and stored at 4° C. The various concentration of working samples were prepared in 0.2 M phosphate buffer, pH-8.0. This sample was used as test sample for all further assays.
Lipase assay: Lipase assay was performed by method described by Winkler and Stuckmann, 1979, with modification. (Winkler, U. K. & Stuckmann, M. Glycogen, hyaluronate, and some other polysaccharides greatly enhance the formation of exolipase by Serratia marcescens. J. Bacteriol. 138: 663-670 (1979)) Assay was designed, using a 96-well format. The substrate used in this assay was p-nitro phenol palmitate (Sigma, Cat No-N-2752). 4.5 mg of p-nitro phenol palmitate was dissolved in 200 μl of N,N-dimethyl formamide (Sigma, Cat No, D-4551) and volume made up to 10 ml with 0.1 M pH 8.0 phosphate buffer. Pancreatic Lipase (Sigma, Cat No. L-3126) sample was prepared by dissolving the enzyme in 0.1M phosphate buffer at a concentration of 5 mg/ml. The reaction mixture consisted of 150 μl substrate solution; 40 μl phosphate buffer (pH 8.0, 0.2 M) and 10 μl lipase solution. The reaction mixture was incubated at 37° C. and optical density was measured at 405 nm after incubation. Enzyme activity was presented in the form of international unit (IU).
Lipase activity: One enzyme unit of lipase is defined as that quantity releasing 1 nm of free phenol from the substrate (p-nitro phenol palmitate) per min per ml under the standard assay condition (Winkler and Stuckmann, 1979; Yadav R P, Saxena R K, Gupta R. Davidson W S., Purification and characterization of a region-specific lipase from Aspergillus terreus. Biotechnol. Appl. Biochem. (1998) 28, (243-249)). It is derived from standard graph of p-nitro phenol (Sigma, 104-8).
Lipase inhibition assay: Enzyme inhibition assay was performed in a dose dependent manner. The concentration of the synthetic analogs checked were 100 μM & 200 μM. The assay was similar to assay described above except 40 μl of test sample was used instead of phosphate buffer in control. Optical density was measured at 0 hr and following incubation at 37° C.
Enzyme Inhibition: Enzyme inhibition was presented in the term of relative activity and percentage inhibition simply on the basis of change in international unit (IU).
Preparation of test samples: Synthetic analogues were dissolved in 1 ml DMSO to obtain a 10 mM stock solution. The samples were vortexed to dissolution and stored at 4° C. The various concentration of working samples were prepared in O.2 M phosphate buffer, pH-8.0. This sample was used as test sample for all further assays.
Lipase inhibition assay: Enzyme inhibition assay was performed in a dose dependent manner. The concentration of the synthetic analogs checked were 6.25 μM-200 μM. The assay was similar to assay described above except 40 μl of test sample was used instead of phosphate buffer in control. Optical density was measured at 0 hr and following incubation at 37° C. The enzyme activity was measured in terms of international unit (IU).
Lipase activity: One enzyme unit of lipase is defined as that quantity releasing 1 nm of free phenol from the substrate (p-nitro phenol palmitate)/min per ml under standard assay conditions. It is derived from standard graph of p-nitro phenol (Sigma, 104-8)
Percent Inhibition: Enzyme inhibition was presented in the term of % inhibition simply on the basis of change in international unit (IU).
The value of IC50 was derived from linear regression. The value derived is based on interpolated data.

For orientation: melting point means the temperature of the solid-liquid transition. Broadly, the IC50 is the concentration needed to halve the response being measured. Read a high IC50 as weaker potency in that assay. In general, inhibition refers to the share of the control response that was lost under treatment.

Each structure is given as a SMILES string. Structures can show the parent of a compound that is named as a salt.

In turn, `CCCCCCCCCCCC1=C(OC(=O)c2ccccc2[N+](=O)[O-])C(=O)C=C(OC(=O)c2ccccc2[N+](=O)[O-])C1=O` (as salt: Na) [Structure #14, 2,5-bis-(2-nitrophenylcarbonyloxy)-3-undecyl-1,4-benzoquinone] returned a melting point of 72.2 to 73.8 °C.

As to `CCCCCCCCCCCC1=C(OC(=O)c2ccccc2)C(=O)C=C(OC(=O)c2ccccc2)C1=O` (as salt: Na) [Structure #15, 2,5-bis-(phenylcarbonyloxy)-3-undecyl-1,4-benzoquinone], the melting point lay in the range of 98.2 to 99.6 °C.

In the case of `CCCCCCCCCCCC1=C(OC(=O)c2cccc(OC)c2)C(=O)C=C(OC(=O)c2cccc(OC)c2)C1=O` (as salt: Na) [Structure #17, 2,5-bis-(3-methoxyphenylcarbonyloxy)-3-undecyl-1,4-benzoquinone], the melting point is 77.1 to 78.6 °C.

Consider `CCCCCCCCCCCC1=C(OC(=O)c2ccc(OC)cc2)C(=O)C=C(OC(=O)c2ccc(OC)cc2)C1=O` (as salt: Na) [Structure #18, 2,5-bis-(4-methoxyphenylcarbonyloxy)-3-undecyl-1,4-benzoquinone], for which the melting point was 99.2 to 100.5 °C.

Compound `CCCCCCCCCCCC1=C(OC(=O)c2ccccc2I)C(=O)C=C(OC(=O)c2ccccc2I)C1=O` (as salt: Na) [Structure #19, 2,5-bis-(2-iodophenylcarbonyloxy)-3-undecyl-1,4-benzoquinone] had a melting point of 64.2 to 67.6 °C.

`CCCCCCCCCCCC1=C(OC(=O)c2cccc(F)c2)C(=O)C=C(OC(=O)c2cccc(F)c2)C1=O` [Structure #2, 2,5-bis-(3-fluorophenylcarbonyloxy)-3-undecyl-1,4-benzoquinone] yielded a melting point of 73.2 to 75.6 °C. On Pancreatic Lipase, the IC50 was less than 6.25 µM, the inhibition at 100 µM was 99.2% and at 200 µM the inhibition was 97.9%.

On to `CCCCCCCCCCCC1=C(OC(=O)c2ccccc2F)C(=O)C=C(OC(=O)c2ccccc2F)C1=O` [Structure #4, 2,5-bis-(2-fluorophenylcarbonyloxy)-3-undecyl-1,4-benzoquinone], for which the melting point was 66.2 to 68 °C. Further, at Pancreatic Lipase, the IC50 worked out at 7.78 µM, 100 µM produced 99.6% inhibition and the inhibition at 200 µM amounted to 100%.

In turn, `CCCCCCCCCCCC1=C(OC(=O)c2cccc([N+](=O)[O-])c2)C(=O)C=C(OC(=O)c2cccc([N+](=O)[O-])c2)C1=O` [Structure #11, 2,5-bis-(3-nitrophenylcarbonyloxy)-3-undecyl-1,4-benzoquinone] returned a melting point of 112.6 to 114.4 °C. In addition, on Pancreatic Lipase, the IC50 amounted to 27 µM, the inhibition at 100 µM turned out to be 97.4% and the inhibition at 200 µM turned out to be 98%.

The values above are taken from patent US7355055B2, “Compounds for treatment of lipase-mediated diseases” (Reliance Life Sciences Pvt. Ltd., priority 2005, dated 2008).
